For four compounds, GI50 results are on record in ChEMBL document CHEMBL1141759, “Steroids from the Antarctic octocoral Anthomastus bathyproctus” (2005).

As usually defined, the GI50 is the concentration that inhibits growth by half. Higher therefore signals less potent growth inhibition.

Holding throughout (assay type): functional
One experiment concerns MDA-MB-231. The experiment in a line: Cytotoxicity against human MDA-MB-231 cells by SRB assay. (In general: The SRB assay estimates cell density from bound dye.)
Another experiment has as its system A549. The experiment in a line: Cytotoxicity against human A549 cells by SRB assay.
In the next experiment the test system is HT-29. The experiment in a line: Cytotoxicity against human HT-29 cells by SRB assay.

Turning to `COC(=O)/C(C)=C/C[C@@H](OC(C)=O)[C@@H](C)[C@H]1CC[C@H]2[C@@H]3CCC4=CC(=O)C=C[C@]4(C)[C@H]3CC[C@]12C`, in the experiment on MDA-MB-231, the GI50 is 18.4 µM.
Consider `COC(=O)C(C)/C=C/[C@@H](C)[C@H]1CC[C@H]2[C@@H]3CCC4=CC(=O)C=C[C@]4(C)[C@H]3CC[C@]12C` (stereo partly drawn), for which the values for the 50% growth inhibitory concentration (GI50) in the experiment with A549, with HT-29 and in the experiment with MDA-MB-231 were 21.4 µM, 20.2 µM and 22.4 µM, respectively.
Consider `COC(=O)/C(C)=C/CC[C@@H](C)[C@H]1CC[C@H]2[C@@H]3CCC4=CC(=O)C=C[C@]4(C)[C@H]3CC[C@]12C`, for which the concentration for 50% growth inhibition (GI50) in the experiment with A549 came out at 16.5 µM; in the experiment on HT-29 it was 15.3 µM; with MDA-MB-231, 21.2 µM.
The compound `C=C(CC[C@](C)(O)[C@H]1CC[C@H]2[C@@H]3CCC4=CC(=O)C=C[C@]4(C)[C@H]3CC[C@@]21C)C(C)C` returned a GI50 with A549 of 23.4 µM.
